Values after ≈ are worked out from the molar mass of the structure shown. Where two headings read alike, the source gives them in different places.
Tests used:
[1] = tested on: Diplodia maydis (Dm); experiment: In vitro pathogen growth inhibition assay, Dm; assay type: cell-based; conditions: Stenocarpella maydis, 48 h
In short: (§1)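 Spores in 17% V8 liquid medium, or 1.5 mm Rs mycelial plugs in ¼ PDB, incubated with compound; final concentration checked by OD600 for precipitation. OD readings at 24 and 48 h, blank-subtracted, plus visual ratings; value is concentration giving ≥90% growth inhibition.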

[2] = tested on: Phytophthora capsici (Pc); experiment: In vitro pathogen growth inhibition assay, Pc; assay type: cell-based; conditions: 48 h
In short: as §1

[3] = tested on: Blumeria graminis f. sp. hordei; experiment: Foliar protection test for barley powdery mildew control; assay type: in vivo; conditions: foliar spray on Hordeum vulgare cv. Perry, inoculated 24 hours after treatment, evaluated 7 days later
In short: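 Protective foliar test: compound atomized onto both leaf surfaces of 6-day-old Hordeum vulgare cv. Perry, followed after 24 h by spore-cloud inoculation from colonized untreated plants. Disease rated on leaves 7 days on, plants held at 20 to 22° C and 70% RH.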

[4] = tested on: Mycosphaerella graminicola (synthetic Septoria tritici); experiment: Foliar protection test for wheat septoria leaf blotch control; assay type: in vivo; conditions: foliar spray on Triticum aestivum cv. WinterHawk, inoculated 1 hour after treatment, evaluated 16 days later
[5] = tested on: Puccinia triticina; experiment: Foliar protection test for wheat leaf rust control; assay type: in vivo; conditions: foliar application to wheat (Triticum aestivum cv. Winterhawk), evaluated 10 days later
[6] = tested on: Blumeria graminis f. sp. hordei; experiment: Early foliar disease control via seed treatment (barley powdery mildew); assay type: in vivo; conditions: seed treatment rate 0.025 mg/seed; barley inoculated 7 days after planting, evaluated 7 days later
Protocol: Barley seeds (Hordeum vulgare cv. Perry or Conlon) were treated with a test compound dissolved in pure acetone, in which the acetone solution (1 mL) was used per 50 seeds in glass jars in a fume hood. The seeds were swirled in the glass jars by hand until no obvious presence of acetone remained and the seeds were mostly dry. Plants were grown for 7 days in 2-inch square pots containing Metromix 200 medium amended with fertilizer. […] After inoculation with the pathogen of Blumeria graminis f. sp. hordei, plants were kept at conditions of 20 to 22° C., 200 uM of light, 70% humidity to facilitate infection and disease development. At 7 days after planting (1st true leaf fully expanded), the plants were moved to the cooler chamber and inoculated by shaking well-colonized, untreated stock plants above the treated material. […] Efficacy was evaluated in 7 days later by examining leaves for colonization and growth of powdery mildew. Each side of each leaf was assigned a severity rating of 0, 1, 5, 10, 25, 50, 75, or 100 percent diseased area. Table 14 lists the results of barley powdery mildew control upon seed treatment with test compounds.

[7] = ≥90% growth inhibition, 48 hours, vs 2% DMSO control, read-out: Compound Concentration (ppm) sufficient for ≥90% inhibition of Dm
[8] = ≥90% growth inhibition, 48 hours, vs 2% DMSO control, read-out: Compound Concentration (ppm) sufficient for ≥90% inhibition of Pc

| Compound | IC90 ([1]; ≥90% inhibition, 48 hours vs 2% DMSO control, read-out: Compound Concentration (ppm) sufficient for ≥90% inhibition of growth, Dm) | IC90 ([2]; ≥90% inhibition, 48 hours vs 2% DMSO control, read-out: Compound Concentration (ppm) sufficient for ≥90% inhibition of growth, Pc) | Barley Powdery Mildew Control at a compound concentration of 10 ppm or lower [3] | Septoria Leaf Blotch Control at a compound concentration of 25 ppm or lower [4] | Wheat Leaf Rust Control at a compound concentration of 10 ppm or lower [5] | IC90 [1, 7] | IC90 [2, 8] | Barley Powdery Mildew Reduction (%) [6] |
| --- | --- | --- | --- | --- | --- | --- | --- | --- |
| COc1ccc(F)cc1[C@H](Cn1c(=O)n(C(C)(C)C(=O)NC(C)C)c(=O)c2c(C)c(-n3nccn3)sc21)OCCC#N [Compound I-095, (R)-2-(1-(2-(2-cyanoethoxy)-2-(5-fluoro-2-methoxyphenyl)ethyl)-5-methyl-2,4-dioxo-6-(2H-1,2,3-triazol-2-yl)-1,4-dihydrothieno[2,3-d]pyrimidin-3 (2H)-yl)-N-isopropyl-2-methylpropanamide] | 0.08 µg/mL (≈ 0.134 µM) | ≥ 2 µg/mL | AA (≥85% control of barley powdery mildew) | AA (≥85% control of wheat septoria leaf blotch) | AA (≥85% control of wheat leaf rust) | – | – | – |
| COc1ccc(F)cc1[C@H](Cn1c(=O)n(C(C)(C)C(=O)NC(C)C)c(=O)c2c(C)c(-n3cccn3)sc21)OCCC#N [Compound I-191, (R)-2-(1-(2-(2-cyanoethoxy)-2-(5-fluoro-2-methoxyphenyl)ethyl)-5-methyl-2,4-dioxo-6-(1H-pyrazol-1-yl)-1,4-dihydrothieno[2,3-d]pyrimidin-3 (2H)-yl)-N-isopropyl-2-methylpropanamide] | – | – | AA (≥85% control of barley powdery mildew) | AA (≥85% control of wheat septoria leaf blotch) | AA (≥85% control of wheat leaf rust) | ≥ 0.4 µg/mL | 50 µg/mL (≈ 83.8 µM) | 94% |
| COc1ccccc1[C@H](Cn1c(=O)n(C(C)(C)C(=O)NC(C)C)c(=O)c2c(C)c(-n3nccn3)sc21)OCCC#N [Compound I-193, (R)-2-(1-(2-(2-cyanoethoxy)-2-(2-methoxyphenyl)ethyl)-5-methyl-2,4-dioxo-6-(2H-1,2,3-triazol-2-yl)-1,4-dihydrothieno[2,3-d]pyrimidin-3 (2H)-yl)-N-isopropyl-2-methylpropanamide] | – | – | AA (≥85% control of barley powdery mildew) | AA (≥85% control of wheat septoria leaf blotch) | AA (≥85% control of wheat leaf rust) | 0.08 µg/mL (≈ 0.138 µM) | 2 µg/mL (≈ 3.45 µM) | 96% |
